The record followed here is the NIST ThermoML archive (doi:10.1021/je900715y).

Numbers after ± are expanded uncertainties.

By mass density is commonly meant mass per unit of volume.

The conditions of data set [1]: 101.3 kPa, Liquid.
The nature of data set [2]: xn = mol fraction of the nth substance listed. To be noted: 101.3 kPa, Liquid, x2 = 0.

`CCC(C)O` (centres undefined) [butan-2-ol]: the mass density in data set [1] (288.15 K) is given as 810.689 ± 0.55 kg/m3; in data set [1] (293.15 K) it was 806.646 ± 0.56 kg/m3; in data set [1] (298.15 K), 802.528 ± 0.56 kg/m3; in data set [1] (303.15 K), 798.326 ± 0.57 kg/m3; in data set [1] (308.15 K), 794.03 ± 0.57 kg/m3; in data set [1] (313.15 K), 789.632 ± 0.58 kg/m3. The mass density in data set [1] (318.15 K) stood at 785.117 ± 0.58 kg/m3; in data set [1] (323.15 K), 780.515 ± 0.59 kg/m3.

As to `CCCCCCC` [heptane], the mass density in data set [1] (288.15 K) was 687.954 ± 0.64 kg/m3; in data set [1] (293.15 K) it was 683.733 ± 0.64 kg/m3; in data set [1] (298.15 K), 679.494 ± 0.65 kg/m3; in data set [1] (303.15 K), 675.229 ± 0.66 kg/m3; in data set [1] (308.15 K), 670.941 ± 0.66 kg/m3; in data set [1] (313.15 K) it was 666.621 ± 0.67 kg/m3. Further, the results for the mass density in data set [1] (318.15 K) and in data set [1] (323.15 K) were 662.273 ± 0.68 kg/m3 and 657.896 ± 0.68 kg/m3, respectively.

`CCCCCCC` [heptane] + CCC(C)O: the mass density in data set [2] (288.15 K) is 687.954 ± 0.64 kg/m3; in data set [2] (293.15 K) it was 683.733 ± 0.64 kg/m3; in data set [2] (298.15 K), 679.494 ± 0.65 kg/m3; in data set [2] (303.15 K) it was 675.229 ± 0.66 kg/m3; in data set [2] (308.15 K) it was 670.941 ± 0.66 kg/m3; in data set [2] (313.15 K), 666.621 ± 0.67 kg/m3. In addition, the results for the mass density in data set [2] (318.15 K) and in data set [2] (323.15 K) were 662.273 ± 0.68 kg/m3 and 657.896 ± 0.68 kg/m3, respectively.
